Results reported in patent US20120270860A1, “METHODS FOR TREATING OR PREVENTING ALCOHOL-RELATED DISORDERS OR CRAVING-RELATED DISORDERS” (priority 2011, published 2012).

Experiments:
[1] = test system: alcohol-dependent individuals; experiment: Randomized, double-blind, placebo-controlled trial for treating alcohol dependence: safety; assay type: in vivo, human; details: N-acetylcysteine up to 3600 mg/day, 8-week treatment
Method: (§1) Alcohol-dependent individuals were recruited for participation in a randomized, double-blind, placebo-controlled trial for treating alcohol dependence. To evaluate the safety and efficacy of N-acetylcysteine, 2 groups (N-acetylcysteine 3600 mg/day and placebo) were compared. The total study duration was 9 weeks which included a 1-week screening period and an 8-week randomized study drug treatment period. Subjects were randomized to one of two groups (Table 1) and were evaluated weekly.
(§2) Of 46 subjects, 44 subjects who took at least one study medication were included in analysis. Data analyses were conducted on an intention-to-treat sample using the linear mixed effects model introduced by Laird and Ware (Laird, N. M. & J. H. Ware. 1982. “Random-Effects Models for Longitudinal Data.” Biometrics 38:963-974). Outcome variables were measured over nine consecutive weeks. The covariates were Alcoholics Anonymous attendance and baseline alcohol craving. All the P-values reported are 2-tailed. Significance level was set at p<0.05.

[2] = test system: alcohol-dependent individuals; experiment: Quality of Life Enjoyment and Satisfaction Questionnaire (Q-LES-Q) during the trial; assay type: in vivo, human; design: key to Q-LES-Q: 16-item Q-LES-Q, 5-point scale; higher = better health status
Method: as §1, §2
The effect of N-acetylcysteine on quality of life was measured weekly during the trial described in Example 1. The quality of life was measured by the Quality of Life Enjoyment and Satisfaction Questionnaire (Q-LES-Q).
The short form of the Q-LES-Q is a 16-item self-rated scale designed to assess quality of life, differences in the degree of enjoyment and satisfaction among groups of subjects, as well as changes over time in a single subject (Endicott J., et al., Quality of Life Enjoyment and Satisfaction Questionnaire: a new measure, Psychopharmacol. Bull., 1993, 29(2), 321-326). It is a 5-point scale, with higher scores indicating better health status. The Q-LES-Q SF has been used extensively in drug treatment trials in psychiatry and addictions and has shown good reliability and validity (Endicott J., et al., Pediatric Quality of Life Enjoyment and Satisfaction Questionnaire (PQ-LES-Q): reliability and validity. J. Am. Acad. Child Adolesc. Psychiatry, 2006, 45(4), 401-7). It assesses the following areas: physical health, mood, work, household activities, social relationships, family relationships, leisure time activities, ability to function in daily life, sexual drive, interest and/or performance, economic status, living/housing situation, ability to get around physically, ability to do work or hobbies, and overall sense of well being.

[3] = test system: alcohol-dependent individuals; experiment: Alcohol craving by Penn Alcohol Craving Scale (PACS) during the trial; assay type: in vivo, human
Method: as §1, §2
During the trial described in Example 1, alcohol craving was measured weekly by the Penn Alcohol Craving Scale (PACS)(Flannery B. A., et al., Psychometric properties of the Penn Alcohol Craving Scale. Alcohol, Clin. Exp. Res. 1999, 23(8), 1289-95). The PACS is a 5-item self-rated scale designed to assess alcohol craving severity (frequency, intensity, duration, resistance, and overall craving) during the preceding 1 week. Each item has a score range of 0-6 (maximum total craving score=30).

[4] = test system: alcohol-dependent individuals; experiment: Alcohol craving by Obsessive Compulsive Drinking Scale (OCDS) during the trial; assay type: in vivo, human; design: key to OCDS: OCDS total score, 14 items scored 0-4, max 56
Method: as §1, §2
Alcohol craving was also measured weekly by the Obsessive Compulsive Drinking Scale (OCDS) (Anton R. F., et al., The obsessive compulsive drinking scale: A new method of assessing outcome in alcoholism treatment studies. Arch. Gen. Psychiatry. 1996, 53(3), 225-231; Anton R. F., et al., The Obsessive Compulsive Drinking Scale: a self-rated instrument for the quantification of thoughts about alcohol and drinking behavior, Alcohol Clin. Exp. Res., 1995, 19(1), 92-99). The OCDS is a 14-item self-rated reliable scale designed to assess obsessive and compulsive aspects of alcoholism. Each item has a score range of 0-4 (maximum total score=56). Studies of factor analysis have reported that the OCDS loads to three or four factors (OCDS: P<0.05) (Roberts. J. S., et al., Factor structure and predictive validity of the Obsessive Compulsive Drinking Scale, Alcohol Clin. Exp. Res., 1999, 23(9), 1484-1491; Bohn, M. J., et al., Psychometric properties and validity of the obsessive-compulsive drinking scale, Alcohol Clin. Exp. Res., 1996, 20(5), 817-23; Kranzler, H. R., et al., Validity of the Obsessive Compulsive Drinking Scale (OCDS): does craving predict drinking behavior?, Alcohol Clin. Exp. Res. 1999, 23(1), 108-14).

[5] = Liver function tests (plasma AST, ALT, GGT) during the trial; assay type: in vivo, human; design: AST / ALT / GGT: unit not given here; details: for ALT / AST / GGT: plasma
Method: as §1
The effect of N-acetylcysteine on liver functions was measured during the trial described in Example 1. Liver functions were assessed by measuring changes in plasma aspartate aminotransferase (AST), alanine aminotransferase (ALT) and γ-glutamyl transferase (GGT) levels three times during the study (week 0, week 5 and week 9).

[6] = test system: patients with alcohol dependence; experiment: Case reports: alcohol consumption and alcohol-related symptoms; assay type: in vivo, human; design: AST / ALT: unit not given here
[7] = Case reports: food cravings and compulsive overeating; assay type: in vivo, human
[8] = Case report: sexual cravings and hypersexual behaviors; assay type: in vivo, human; details: for hypersexual symptoms: naltrexone and topiramate before N-acetylcysteine
Excerpt: They had sexual arousal even at age five to six years old. They started to masturbate several years later. Pretty soon masturbation became compulsive daily and multiple times a day. By then they had more access to pornography and internet. They would spend hours and hours on it. Their personal life was devastated. They had been in 12 step program called “Sex Addicts Anonymous” for the past 10 years in one of the largest cities in the US. Problem would repeatedly haunt them. Although they were given various antidepressants by doctors their condition had never stopped. They were treated with naltrexone and topiramate. […] Their hypersexual cravings and symptoms were gone. Currently, they are happily married and doing well at work. They are no longer taking naltrexone or topiramate. They are taking N-acetylcysteine only on an as needed basis. We have found same principles in voyeurism, exhibitionism and other sexual deviations. These patients often end up in jail yet they can't help themselves because of uncontrollable cravings.

[9] = Case report: shopping cravings and compulsive shopping; assay type: in vivo, human; details: person, 2400-3600 mg/day, within two weeks
Method: They have had compulsive shopping behaviors for the past 20 years. They have been under severe financial stress because of their spending habits and unemployment. They had other addictive behaviors such as drinking, hoarding and overeating. Earlier, they were married, had stable job but lost everything. Various medicines such as antipsychotics and antidepressants were ineffective. On the third visit they were given N-acetylcysteine and was advised to take 2400-3600 mg/day.

[10] = test system: cysteine/glutamate exchange; details: preclinical studies; cited from earlier work
[11] = in vivo; cited from earlier work
[12] = in vivo; cited from earlier work; remark: listed apart in the source
[13] = test system: cocaine-dependent patients; details: cited from earlier work

Compound: CC(=O)N[C@@H](CS)C(=O)O [N-acetylcysteine]
- serious adverse effects [1]: no serious adverse effects
- tolerability [1]: well tolerated
- Q-LES-Q ([2]; Week 1): 50.4000
- Q-LES-Q ([2]; Week 2): 51.6390
- Q-LES-Q ([2]; Week 3): 53.8772
- Q-LES-Q ([2]; Week 4): 54.1789
- Q-LES-Q ([2]; Week 5): 57.7852
- Q-LES-Q ([2]; Week 6): 57.5529
- Q-LES-Q ([2]; Week 7): 58.1422
- Q-LES-Q ([2]; Week 8): 57.8000
- Q-LES-Q ([2]; Week 9): 58.7244
- quality of life by Q-LES-Q compared to placebo ([2]; during the trial, p=0.017): improved the quality of life
- PACS ([3]; Week 1): 18.1429
- PACS ([3]; Week 2): 15.1500
- PACS ([3]; Week 3): 14.0000
- PACS ([3]; Week 4): 11.9474
- PACS ([3]; Week 5): 11.7778
- PACS ([3]; Week 6): 9.3529
- PACS ([3]; Week 7): 8.3333
- PACS ([3]; Week 8): 7.2667
- PACS ([3]; Week 9): 7.2000
- alcohol craving by PACS compared to placebo ([3]; during the trial, p=0.041): decreased alcohol craving
- OCDS ([4]; Week 1): 29.0000
- OCDS ([4]; Week 2): 24.9000
- OCDS ([4]; Week 3): 21.6316
- OCDS ([4]; Week 4): 20.3684
- OCDS ([4]; Week 5): 18.5556
- OCDS ([4]; Week 6): 16.0000
- OCDS ([4]; Week 7): 13.5333
- OCDS ([4]; Week 8): 13.4667
- OCDS ([4]; Week 9): 13.8000
- alcohol craving by OCDS compared to placebo ([4]; during the trial, p=0.042): decreased alcohol craving
- liver functions (AST, ALT, GGT liver function tests) ([5]; 8-week trial): improved liver functions
- ALT ([5]; Week 0): 36.67
- AST ([5]; Week 0): 40.89
- GGT ([5]; Week 0): 193.00
- ALT ([5]; Week 5): 33.06
- AST ([5]; Week 5): 30.28
- GGT ([5]; Week 5): 139.06
- ALT ([5]; Week 9): 29.13
- AST ([5]; Week 9): 26.13
- GGT ([5]; Week 9): 92.93
- alcohol use ([6]; Case 1, after taking 900 mg): able to stop drinking alcohol
- alcohol craving ([6]; Case 1, on 3600 mg): substantial reduction in their craving
- AST ([6]; Case 2, from 41, in two months while taking N-acetylcysteine): 20
- ALT ([6]; Case 2, from 51, in two months while taking N-acetylcysteine): 18
- GGT ([6]; Case 2, from 1420, in two months while taking N-acetylcysteine): 327
- alcohol use ([6]; Case 2, soon after start): able to abstain from alcohol
- alcohol use ([6]; Case 3, at 3600 mg/day): able to stop drinking alcohol completely
- alcohol use ([6]; Case 4, 900 mg, before 12-24 beers/day): 6 drinks/day
- alcohol use ([6]; Case 4, several weeks later, 2400-3600 mg): able to abstain from alcohol
- drinking consumption ([6]; Case 5, 3600 mg, before 6-12 drinks of vodka per day): reduced their drinking significantly
- drinking consumption ([6]; Case 5, at 900-2700 mg/day): about the same
- alcohol consumption and other alcohol-related symptoms ([6]; numerous test subjects): reduced alcohol consumption and other alcohol-related symptoms
- weight ([7]; Case 1, from 239 lbs, in 5 weeks, 2700-3600 mg per day): 225 lbs
- weight ([7]; Case 1, two months later, 3600 mg): 224 lbs
- weight ([7]; Case 2, from 295 lbs, in one month): 286 lbs
- time for food craving to subside after taking ([7]; Case 3, 1200 mg): ≤ 15 min
- weight lost ([7]; Case 3, start 220 lbs, two weeks, 1200 mg three times a day): 6 lbs
- food cravings and compulsive overeating ([7]; numerous test subjects): reduced food cravings and compulsive overeating
- effect in voyeurism, exhibitionism and other sexual deviations ([8]; patients with uncontrollable cravings): works dramatically
- hypersexual cravings and symptoms ([8]; person, 2400-3600 mg/day added to naltrexone and topiramate): ameliorated dramatically
- shopping cravings and behaviors [9]: stopped dramatically
- cocaine-primed reinstatement [10]: inhibited
- heroin-induced reinstatement [10]: inhibited
- treatment of pathological gambling [11]: showed the efficacy
- half-life [12]: short half-life
- cocaine use and craving ([13]; double-blind placebo-controlled crossover trial): reduced cocaine use and craving
- safety and tolerability ([13]; human, in vivo): safe and well tolerated
- cocaine use ([13]; open-label clinical study of cocaine-dependent patients): significantly reduced cocaine use

Compound: O=C1CC[C@@]2(O)[C@H]3Cc4ccc(O)c5c4[C@@]2(CCN3CC2CC2)[C@H]1O5 [naltrexone]
- hypersexual symptoms ([8]; person): only partially

Compound: CC1(C)O[C@@H]2[C@@H](CO[C@@]3(COS(N)(=O)=O)OC(C)(C)O[C@@H]23)O1 [topiramate]
- hypersexual symptoms ([8]; person): only partially
